Experimental data from the NIST ThermoML archive (doi:10.1021/je101361u).

Assay: xn = mol fraction of the nth substance listed
Details: 101.3 kPa, Liquid, Vibrating tube method

COCCOCCOC [2,5,8-trioxanonane] + ClCCCl
mass density [kg/m3]
Details	283.15 K	288.15 K	293.15 K	298.15 K	303.15 K	308.15 K
x2 = 0	–	948.72	–	–	–	–
x2 = 0.0252	958.22	953.25	948.26	943.26	938.26	933.23
x2 = 0.0508	963.01	958.01	952.99	947.97	942.93	937.88
x2 = 0.0751	967.64	962.62	957.57	952.52	947.45	942.36
x2 = 0.1	972.47	967.4	962.33	957.24	952.14	947.02
x2 = 0.1502	982.62	977.49	972.35	967.19	962.02	956.85
x2 = 0.1999	993.12	987.92	982.7	977.48	972.24	966.98
x2 = 0.25	1004.25	998.97	993.69	988.39	983.08	977.75
x2 = 0.3002	1015.91	1010.56	1005.2	999.83	994.44	989.03
x2 = 0.3501	1028.01	1022.59	1017.14	1011.69	1006.21	1000.72
x2 = 0.4	1040.79	1035.28	1029.75	1024.2	1018.64	–
x2 = 0.45	1054.2	1048.58	1042.96	1037.32	1031.66	–
x2 = 0.5003	1068.49	1062.78	1057.05	1051.31	1045.56	–
x2 = 0.5499	1083.31	1077.45	1071.62	1065.77	1059.91	–
x2 = 0.5999	1098.98	1093.07	1087.13	1081.17	1075.19	–
x2 = 0.6501	1115.77	1109.73	1103.67	1097.58	1091.48	–
x2 = 0.7	1133.3	1127.26	1121.07	1114.85	1108.62	–
x2 = 0.75	1151.98	1145.68	1139.34	1132.98	1126.61	–
x2 = 0.8	1172.08	1165.61	1159.12	1152.61	1146.07	–
x2 = 0.8499	1193.31	1186.69	1180.04	1173.37	1166.67	–
x2 = 0.9	1216.25	1209.44	1202.6	1195.74	1188.86	–
x2 = 0.925	1228.27	1221.36	1214.42	1207.47	1200.48	–
x2 = 0.9494	1240.66	1233.66	1226.62	1219.57	1212.48	–
x2 = 0.975	1253.89	1246.79	1239.64	1232.47	1225.28	–
